Assay results: patent publication US20240299328A1, “COMPOSITIONS COMPRISING 15-HEPE AND METHODS OF TREATING AND/OR PREVENTING HEMATOLOGIC DISORDERS AND RELATED DISEASES” (Afimmune Limited, priority 2023, published 2024)

Assays:
[1] = test system: humanized sickle cell (SS) mice; test: Humanized SCD (SS) mice under normoxia, 6 weeks treatment; type: in vivo; details: 1000 mg/Kg/d for 6 weeks
Method: Animals and design of the study: Experiments were performed on 4-5 months-old sex matched healthy control (Hba^tm1(HBA) Tow Hbb^tm3(HBG1, HBB) Tow) and SCD (Hba^tm1(HBA)Tow Hbb^tm2(HBG1.HBB*)Tow) mice. The study used 4-5 months-old mice. The sickle cell related organ damage is not so severe to generate confounding factors when the impact of H/R induced stress is evaluated. This is also corroborated by the observation of Kasztan M et al who show gender-related differences in kidney function of humanized SCD mice becoming significant after 24 weeks (6 months) of age. The size of the mouse groups was established based on studies with the same mouse model for SCD generated by us and other labs. Mice were randomly assigned to the different treatment groups and analysis. Healthy and SS mice were treated with ether vehicle (hydroxypropyl methyl cellulose, HPMC, 0.5%) or Epeleuton in HPMC 0.5% (1000 mg/kg/day) administrated by gavage for 6 weeks. […] When indicated, mice underwent a hypoxia/reoxygenation stress (H/R): 10 hours hypoxia (8% oxygen) followed by 3 hours reoxygenation (21% oxygen) to mimic acute vaso-occlusive crisis as previously described. Whole blood and organs were collected from each mouse under isoflurane anesthesia. Organs were immediately removed and divided into two portions which were either immediately frozen in liquid nitrogen or fixed in 10% formalin and embedded in paraffin for histology. Hematological parameters were evaluated with a Sysmex XN-1000 Hematology Analyzer and red cell morphology was evaluated as previously reported. Biochemical assays were performed using standard biochemical assays, as previously reported. Plasmatic Pentraxin 2 and CCL-2 and CXCL-2 were measured respectively using the Mouse Pentraxin 2/SAP Quantikine ELISA Kit and the next generation ELISA kit according to the manufacturer's instruction.
Immunoblot analysis: Packed red cells were lysed in ice-cold phosphate lysis buffer (5 mM Na2HPO4, pH 8.0, containing protease inhibitor cocktail tablets, 3 mM benzamidine final concentration, 1 mM Na3VO4 final concentration) and centrifuged 10 min at 4° C. at 12,000 g. Red cell membrane (ghost) and cytosol fractions were obtained as previously reported. Frozen lung, kidney and aorta from each studied group were homogenized and lysed with iced lyses buffer (150 mM NaCl, 25 mM bicine, 0.1% SDS, 2% Triton X-100, 1 mM EDTA, protease inhibitor cocktail tablets, 1 mM Na3VO4 final concentration) then centrifuged 30 min at 4° C. at 12,000 g. Specific antibodies used are: anti Phospho-Tyrosine (clone PY99 from SCBT, Santa Cruz, CA (dilution 1:3000, 75 μg loaded) and clone 4G10 from Merck KGaA, Darmstadt, Germany (dilution 1:1600, 75 μgr loaded)); anti Phospho (Ser536) NF-kB p65 (dilution 1:1000, 75 μg loaded) and anti NF-kB p65 (clone C22B4) (dilution 1:1000, 75 μgr loaded) from Cell Signaling Technology (Danvers, MA, USA); anti-NLRP3/NALP3 from Vinci-Biochem Srl, Vinci, Italy (dilution 1:1000, 75 μgr loaded); anti Endothelin-1 (ET-1) form AbCam, Cambridge, UK (dilution 1:1000, 75 μgr loaded); anti VCAM-1 (R and D Systems, Minneapolis, MN, USA (dilution 1:1000, 40 μgr loaded)); anti ICAM-1 (clone EP1442Y, dilution 1:1000, 75 μgr loaded, AbCam, Cambridge, UK); anti TXAS-1 (Cayman, Ann Arbor, MI, USA); anti Nrf2-phospho-S40 (Clone EP1809Y, dilution 1:1000, 75 μgr loaded, AbCam, Cambridge, UK); anti-Nrf2 (dilution 1:1000, 75 μgr loaded, AbCam, Cambridge, UK); anti Nqo1 from Santa Cruz Biotechnology, Inc, CA, USA (clone C-19; dilution 1:1000, 75 μgr/μl loaded); anti-heme oxygenase 1(HO-1) form SCBT (Santa Cruz, CA, USA (dilution 1:1000, 50 μgr loaded); E-selectin (H-300) (dilution 1:1000, 75 μgr loaded); anti GAPDH from SCBT (Santa Cruz, CA, USA (dilution 1:5000, 50 μgr loaded)); anti Actin from SCBT (Santa Cruz, CA, USA (clone 2A3, dilution 1:1000, 50 μgr/loaded)). […]

rats = details: 28-day dose ranging study; cited from earlier work

For CC/C=C\C[C@H](O)/C=C/C=C\C/C=C\C/C=C\CCCC(=O)OCC [DS102, 15(S)-hydroxy-(5Z,8Z,11Z,13E,17Z)-eicosapentaenoic acid ethyl ester], the “tolerability and body weight” value [1] was “well tolerated without major changes in body weight”, the ALT ([1]; normoxia) was “significant reduction” and the AST ([1]; normoxia) was “no change”. The CRP ([1]; normoxia) was “significant reduction”, the circulating neutrophils ([1]; normoxia) was “significant reduction” and the “expression of VCAM-1, ICAM1 and endothelin-1 (ET-1) in lungs, kidneys, livers” value ([1]; normoxia) was “significantly reduction”. For the same compound, the liver protein oxidation ([1]; normoxia) was “marked reduction”, the pentraxin-2 ([1]; normoxia) was “trend toward a reduction” and the “plasma CCL2/MCP1” value ([1]; normoxia) was “lower”. The BUN ([1]; normoxia, vs vehicle) was “no change”, the “activation of NF-kB in lungs, kidneys, and livers” value ([1]; normoxia, vs vehicle) was “significantly reduced” and the “expression of ICAM-1 and ET-1 in isolated aortas” value ([1]; normoxia, vs vehicle) was “significantly down-regulated”. The serum creatinine ([1]; normoxia, vs vehicle) was “trend toward a reduction”, the “hematocrit or reticulocyte counts” value ([1]; normoxic conditions) was “no significant changes” and the “oral maximum tolerated dose (MTD)” value (rats) was 6 g/kg/day.
